Reference: patent publication US20230330254A1 (Regeneron Pharmaceuticals, Inc., priority 2022, published 2023)
≈ marks a conversion by molar mass, not a printed value. Like-named read-outs stand apart in the source and are kept apart here. Where a SMILES comes first, the peptide text is derived from it. [ ]: non-standard residue; d: D form. The star is where a group is joined. Bip(2'-Et,4'-O(CH2)4NH2) = CCc1cc(OCCCCN)ccc1-c1ccc(C[C@H](N)C(=O)O)cc1; Malonyl(2,2-Me2,histaminyl) = CC(C)(C(=O)NCCc1cnc[nH]1)C(=O)*; Nva(5-(3,5-Me2Ph)) = Cc1cc(C)cc(CCC[C@H](N)C(=O)O)c1; Ala(1H-tetrazol-5-yl) = N[C@@H](Cc1nnn[nH]1)C(=O)O; αMePhe(2-F) = C[C@](N)(Cc1ccccc1F)C(=O)O

Assays:
[1] = Plasma stability of payloads (t½)
[2] = Water solubility; type: physicochemical; conditions: Table 5C
[3] = Liver microsome stability; type: in vitro ADME, human
Protocol: To assess the in vitro ADME properties of the LP, microsomal stability assay was performed to determine intrinsic clearance, and plasma protein binding assay was performed to understand the distribution potential.

[4] = Plasma stability of payloads and linker-payloads, monkey plasma; type: in vitro ADME; conditions: pooled plasma
Protocol: The plasma stability of payloads and linker payloads of the disclosure were measured. For the assay, pooled frozen plasma (human, mouse or monkey) was thawed in cold water or a 37° C. water bath prior to experiment. Plasma was centrifuged at 4000 rpm for 5 min if any clots were observed, they were subsequently removed. If required, the pH was adjusted to 7.4±0.1. For the preparation of compounds and positive controls, a 1 mM intermediate solution was prepared by diluting 10 μL of their stock solution with 90 μL DMSO; a 1 mM intermediate solution of the positive control (Propantheline) was prepared by diluting 10 μL of its stock solution with 90 μL ultrapure water. Subsequently, 100 μM dosing solution for each compound was prepared by diluting 20 μL of the intermediate solution (1 mM) with 180 μL 45% MeOH/H2O. 98 μL of plasma was spiked with 2 μL of dosing solution (100 μM) to achieve the final concentration of 2 μM in duplicate. Samples were then incubated at 37° C. in a water bath. […] At each time point, 400 μL of stop solution (200 ng/mL tolbutamide plus 200 ng/mL labetalol in 50% ACN/MeOH) was added to precipitate protein and mixed thoroughly. Sample plates were then centrifuged at 4,000 rpm for 10 min. An aliquot of supernatant (50 μL) was transferred from each well and mixed with 100 μL ultrapure water. The samples were then shaken at 800 rpm for approximately 10 min before submitting for LC-MS/MS analysis.

[5] = molecular target: T1, human gastric inhibitory polypeptide receptor (GIPR) (Homo sapiens, UniProt P48546); assay: Luciferase reporter assay, HEK293/CRE-Luc/hGIPR (Example 17); type: cell-based; set-up: expressed in transfected cells; host or cells: HEK293/CRE-Luc; conditions: Table 28; CRE-dependent luciferase reporter activity; read-out: HEK293/CRE-Luc/hGlPR EC50
T1 sequence (P48546 22-466): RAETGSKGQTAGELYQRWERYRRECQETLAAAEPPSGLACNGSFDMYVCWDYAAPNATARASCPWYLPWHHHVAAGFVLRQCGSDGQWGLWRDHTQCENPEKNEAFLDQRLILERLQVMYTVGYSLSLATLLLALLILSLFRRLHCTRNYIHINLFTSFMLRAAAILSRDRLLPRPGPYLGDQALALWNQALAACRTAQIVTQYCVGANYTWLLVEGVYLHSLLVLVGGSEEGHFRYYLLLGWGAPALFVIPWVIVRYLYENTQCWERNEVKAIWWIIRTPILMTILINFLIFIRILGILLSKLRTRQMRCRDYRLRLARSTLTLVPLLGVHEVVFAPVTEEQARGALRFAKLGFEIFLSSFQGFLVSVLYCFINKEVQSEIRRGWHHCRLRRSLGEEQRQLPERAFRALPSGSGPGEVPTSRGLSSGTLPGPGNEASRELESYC
Excerpt: (§1) To test the activity of GLP1R agonist payloads, GLP1R agonist linker-payloads (LPs), and anti-GLP1R antibody tethered drug conjugates (ATDCs) of the invention, a cell-based cAMP responsive luciferase reporter assay was developed. To generate the assay cell line, the firefly luciferase gene was placed under the control of a cAMP response element (CRE) located upstream of a minimal promoter and transfected into HEK293 cells and referred to herein as HEK293/CRE-Luc cells.
Three-fold serial dilutions of free payloads or LPs were prepared in 100% DMSO, transferred to fresh assay media, and added to the cells at a final constant DMSO concentration of 0.2%. The last well in the plate served as a blank control containing only the assay media and 0.2% DMSO (untreated well) and was plotted as a continuation of the 3-fold serial dilution. Four to six hours later, luciferase activity was determined after the addition of One-Glo™ reagent (Promega, Cat #E6130) to each well. Relative light units (RLUs) were measured on an Envision luminometer (PerkinElmer) and EC50 values were determined using a four-parameter logistic equation over a 12-point dose response curve (GraphPad Prism). The signal to noise (S/N) was determined by taking the ratio of the highest RLU on the dose response curve to the RLU in the untreated wells. […]

[6] = molecular target: human GLP1R (Homo sapiens, UniProt P43220); assay: CRE-Luc cAMP reporter assay, HEK293/CRE-Luc/hGLP1R (Example 24); type: cell-based; set-up: engineered to express full-length human GLP1R, cynomolgus GLP1R; expressed in transfected cells; host or cells: HEK293/CRE-Luc
Excerpt: as §1, with “antibody-tethered ligands (ATLs)” for “antibody tethered drug conjugates (ATDCs)”, “cells. HEK293/CRE-Luc cells were then engineered to express full-length human GLP1R (HEK293/CRE-Luc/hGLP1R), cynomolgus GLP1R (HEK293/CRE-Luc/mfGLP1R), or mouse GLP1R (HEK293/CRE-Luc/mGLP1R).” for “cells.”
Serial dilutions of free payload and linker payloads (LP) were performed in 100% DMSO (ATCC, #4-X-5), followed by 1:100 dilution in assay media. Test articles were added to cells (1:5 dilution) with the last well in each serial dilution series serving as a blank control containing only assay media for antibodies and ATLs or assay media with 0.2% DMSO for payloads and LPs. After a 5-hour incubation at 37° C., luciferase activity was determined by addition of ONE-Glo reagent (Promega, #E6130) followed by measurement of relative light units (RLUs) on an EnVision Plate Reader (Perkin Elmer).
EC50 values for luminescence assays were determined using a four-parameter logistic equation over a 12-point dose response curve (GraphPad Prism).

Sequence of human GLP1R (P43220 24-463): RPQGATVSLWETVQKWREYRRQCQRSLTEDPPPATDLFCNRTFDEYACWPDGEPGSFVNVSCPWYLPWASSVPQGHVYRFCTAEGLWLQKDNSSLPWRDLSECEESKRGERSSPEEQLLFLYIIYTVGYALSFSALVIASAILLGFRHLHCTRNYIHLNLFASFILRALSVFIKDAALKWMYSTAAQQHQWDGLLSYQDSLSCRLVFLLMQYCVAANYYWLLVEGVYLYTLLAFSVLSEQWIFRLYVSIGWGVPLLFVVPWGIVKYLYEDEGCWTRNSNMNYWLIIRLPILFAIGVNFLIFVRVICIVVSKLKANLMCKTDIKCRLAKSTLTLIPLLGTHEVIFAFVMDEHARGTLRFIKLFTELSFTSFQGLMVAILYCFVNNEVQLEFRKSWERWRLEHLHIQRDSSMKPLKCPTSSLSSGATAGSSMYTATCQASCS

CCc1cc(OCCCCN)ccc1-c1ccc(C[C@H](NC(=O)[C@H](CC(=O)O)NC(=O)[C@H](CO)NC(=O)[C@@H](NC(=O)[C@](C)(Cc2ccccc2F)NC(=O)[C@@H](NC(=O)CNC(=O)[C@H](Cc2nn[nH]n2)NC(=O)C(C)(C)C(=O)NCCc2cnc[nH]2)[C@@H](C)O)[C@@H](C)O)C(=O)N[C@@H](CCCc2cc(C)cc(C)c2)C(N)=O)cc1 [P9, (8S,14S,17S,20S,23S,26S)-8-((2H-tetrazol-5-yl)methyl)-26-(((S)-1-(((S)-1-amino-5-(3,5-dimethylphenyl)-1-oxopentan-2-yl)amino)-3-(4′-(4-aminobutoxy)-2′-ethyl-[1,1′-biphenyl]-4-yl)-1-oxopropan-2-yl)carbamoyl)-17-(2-fluorobenzyl)-14,20-bis((R)-1-hydroxyethyl)-23-(hydroxymethyl)-1-(1H-imidazol-5-yl)-5,5,17-trimethyl-4,6,9,12,15,18,21,24-octaoxo-3,7,10,13,16,19,22,25-octaazaoctacosan-28-oic acid] ({Malonyl(2,2-Me2,histaminyl)}-[Ala(1H-tetrazol-5-yl)]GT[αMePhe(2-F)]TSD[Bip(2'-Et,4'-O(CH2)4NH2)][Nva(5-(3,5-Me2Ph))]-NH2)
Plasma stability t½ [1]: >57.8 h

CCc1cc(OCCCCn2cc(COCCOCCOCCOCCOCCOCCOCCOCCN)nn2)ccc1-c1ccc(C[C@H](NC(=O)[C@H](CC(=O)O)NC(=O)[C@H](CO)NC(=O)[C@@H](NC(=O)C(C)(Cc2ccccc2F)NC(=O)[C@@H](NC(=O)CNC(=O)[C@H](Cc2nn[nH]n2)NC(=O)C(C)(C)C(=O)NCCc2cnc[nH]2)[C@@H](C)O)[C@@H](C)O)C(=O)N[C@@H](CCCc2cc(C)cc(C)c2)C(N)=O)cc1 (stereo partly drawn) [LP11, NH2-PEG8-triazole-P8]
solubility [2]: 60 mM (≈ 119 mg/mL) | CLint(mic) ([3]; Table 7): <9.6 µL/min/mg | CLint scaled ([3]; human, liver microsomes, Table 5C, read-out: Human Liver microsome CLint(liver)): < 8.6 mL/min/kg | microsomal CLint ([3]; human, liver microsomes, Table 5C, read-out: Human Liver microsome CLint(mic)): < 9.6 µL/min/mg | half-life ([3]; human, liver microsomes, Table 5C, read-out: Human Liver microsome T1/2): > 2.42 h | half-life at 2 µM ([4]; pH 7.4, Monkey, assay time 3 days, Table 5B, read-out: plasma stability T½): > 49.4 h | half-life at 2 µM ([4]; pH 7.4, Table 5A, monkey plasma, tested time C (3 days), read-out: plasma stability T½ (hr), monkey): > 49.4 h | half-life at 2 µM ([4]; pH 7.4, Table 5C, read-out: Plasma Stability Monkey T1/2): > 48 h

CCc1cc(OCCCCn2cc(COCCOCCOCCOCCOCCOCCOCCOCCN)nn2)ccc1-c1ccc(C[C@H](NC(=O)[C@H](CC(=O)O)NC(=O)[C@H](CO)NC(=O)[C@@H](NC(=O)[C@](C)(Cc2ccccc2F)NC(=O)[C@@H](NC(=O)CNC(=O)[C@H](Cc2nn[nH]n2)NC(=O)C(C)(C)C(=O)NCCc2cnc[nH]2)[C@@H](C)O)[C@@H](C)O)C(=O)N[C@@H](CCCc2cc(C)cc(C)c2)C(N)=O)cc1 [M3190]
EC50 [5]: > 200 nM | Emax ([6]; HEK293, read-out: HEK293/CRE-Luc/hGLP1R Emax (% GLP-1)): 93.9% | EC50 ([6]; Table 40, CRE-dependent reporter activity, no unit printed in table (text b1912 reads values as M)): 0.0168 nM
